Experimental data published in ChEMBL document CHEMBL4477224, “Antidiabetic effect, antioxidant activity, and toxicity of 3',4'-Di-O-acetyl-cis-khellactone in Streptozotocin-induced diabetic rats” (Bioorg Med Chem Lett, 2016).
Activity calls are given as the source filed them. The calls are words filed in the database; no cut-off is given here.

What was measured:
[1] = tested on: Rattus norvegicus; assay: Antidiabetic activity in STZ-induced diabetic Wistar rat assessed as change in fasting blood glucose level at 15 mg/kg, po administered on day 7 post STZ challenge measured immediately post dosage by glucometry (reference value: 72.90 +/- 5.2 mg/dl); assay type: functional
[2] = tested on: Rattus norvegicus; assay: Antidiabetic activity in STZ-induced diabetic Wistar rat blood assessed as urea level at 15 mg/kg, po administered for 15 days (reference value: 62.98 +/- 6.21 mg/dl); assay type: functional
[3] = tested on: Rattus norvegicus; assay: Antidiabetic activity in STZ-induced diabetic Wistar rat blood assessed as HDL level at 15 mg/kg, po administered for 15 days (reference value: 36.31 +/- 0.51 mg/dl); assay type: functional
[4] = tested on: Rattus norvegicus; assay: Antidiabetic activity in STZ-induced diabetic Wistar rat blood assessed as LDL level at 15 mg/kg, po administered for 15 days (reference value: 23.11 +/- 9.82 mg/dl); assay type: functional
[5] = tested on: Rattus norvegicus; assay: Antioxidant activity in STZ-induced diabetic Wistar rat liver assessed as catalase level measured as H2O2 consumption per mg of protein at 15 mg/kg, po administered for 15 days (reference value: 68.9 +/- 11.1 microM/min); assay type: functional
[6] = tested on: Rattus norvegicus; assay: Antidiabetic activity in STZ-induced diabetic Wistar rat assessed as increase in beta cells at 15 mg/kg, po administered for 15 days by fluorescence microscopy; assay type: functional, organism-based
[7] = Mutagenicity in Salmonella typhimurium TA98 assessed as mutagenic index at 50 uM/plate after 48 hrs in presence of S9 fraction by Ames test relative to control; assay type: toxicity, subcellular; details: salmonella enterica subsp. enterica serovar typhimurium, s9, 48 h
[8] = Mutagenicity in Salmonella typhimurium TA98 assessed as mutagenic index at 17.30 uM/plate after 48 hrs in absence of S9 fraction by Ames test relative to control; assay type: toxicity; details: salmonella enterica subsp. enterica serovar typhimurium, s9, 48 h, 17.3 µM
[9] = Mutagenicity in Salmonella typhimurium TA98 assessed as mutagenic index at 34.60 uM/plate after 48 hrs in absence of S9 fraction by Ames test relative to control; assay type: toxicity; details: salmonella enterica subsp. enterica serovar typhimurium, s9, 48 h, 34.6 µM
[10] = Mutagenicity in Salmonella typhimurium TA98 assessed as mutagenic index at 50 uM/plate after 48 hrs in absence of S9 fraction by Ames test relative to control; assay type: toxicity; details: salmonella enterica subsp. enterica serovar typhimurium, s9, 48 h
[11] = Mutagenicity in Salmonella typhimurium TA100 assessed as mutagenic index at 8.65 uM/plate after 48 hrs in presence of S9 fraction by Ames test relative to control; assay type: toxicity, subcellular; details: salmonella enterica subsp. enterica serovar typhimurium, s9, 48 h
[12] = Mutagenicity in Salmonella typhimurium TA100 assessed as mutagenic index at 34.60 uM/plate after 48 hrs in presence of S9 fraction by Ames test relative to control; assay type: toxicity, subcellular; details: salmonella enterica subsp. enterica serovar typhimurium, s9, 48 h, 34.6 µM
[13] = Mutagenicity in Salmonella typhimurium TA100 assessed as mutagenic index at 50 uM/plate after 48 hrs in presence of S9 fraction by Ames test relative to control; assay type: toxicity, subcellular; details: salmonella enterica subsp. enterica serovar typhimurium, s9, 48 h
[14] = Mutagenicity in Salmonella typhimurium TA102 assessed as mutagenic index at 8.65 uM/plate after 48 hrs in presence of S9 fraction by Ames test relative to control; assay type: toxicity, subcellular; details: salmonella enterica subsp. enterica serovar typhimurium, s9, 48 h
[15] = Mutagenicity in Salmonella typhimurium TA102 assessed as mutagenic index at 50 uM/plate after 48 hrs in presence of S9 fraction by Ames test relative to control; assay type: toxicity, subcellular; details: salmonella enterica subsp. enterica serovar typhimurium, s9, 48 h
[16] = Mutagenicity in Salmonella typhimurium TA102 assessed as mutagenic index at 8.65 uM/plate after 48 hrs in absence of S9 fraction by Ames test relative to control; assay type: toxicity; details: salmonella enterica subsp. enterica serovar typhimurium, s9, 48 h
[17] = Mutagenicity in Salmonella typhimurium TA102 assessed as mutagenic index at 17.30 uM/plate after 48 hrs in absence of S9 fraction by Ames test relative to control; assay type: toxicity; details: salmonella enterica subsp. enterica serovar typhimurium, s9, 48 h, 17.3 µM
[18] = Mutagenicity in Salmonella typhimurium TA102 assessed as mutagenic index at 34.60 uM/plate after 48 hrs in absence of S9 fraction by Ames test relative to control; assay type: toxicity; details: salmonella enterica subsp. enterica serovar typhimurium, s9, 48 h, 34.6 µM
[19] = Acute toxicity in BALB/c mouse assessed as increase in body weight at 2000 mg/kg, ig after 14 days (reference value: 13.3 +/- 0.3g); assay type: organism-based; details: in vivo, po, 336 h
[20] = tested on: Rattus norvegicus; assay: Antidiabetic activity in STZ-induced diabetic Wistar rat assessed as increase in fasting blood glucose level at 15 mg/kg, po administered for 15 days post STZ challenge measured on day 21 by glucometry; assay type: functional

`CC(=O)O[C@@H]1c2c(ccc3ccc(=O)oc23)OC(C)(C)[C@@H]1OC(C)=O` (relative stereo) [QUIANHUCOUMARIN D] showed an Activity [1] of 363.2 mg/dL, an Activity [2] of 42.04 mg/dL and an Activity [3] of 29.77 mg/dL. The Activity [4] was 22.38 mg/dL, the Activity [5] was 94.8 µM/min and the Activity [6] was “Active”. For the same compound, the Ratio [7] was 1.1, the Ratio [8] was 1 and the Ratio [9] was 0.8. The Ratio [10] was 1.1, the Ratio [11] was 0.9 and the Ratio [12] was 0.8. It also gave a Ratio [13] of 0.9, a Ratio [14] of 0.8 and a Ratio [15] of 1.2. The Ratio [16] was 0.7, the Ratio [17] was 0.7 and the Ratio [18] was 1. It also gave an Activity [19] of 13 g and an Activity [20] of 55.35 mg/dL.
